Data set [1] has as its system adult rats. Nature of the data set: intraplantar injection, mechanical threshold for paw withdrawal (von Frey hairs). The class given is in vivo, rat. The note with it: QX-314 10 μL of 2%, capsaicin 10 μg/10 μL, capsaicin effect at 15 and 30 minutes. The procedure:
(§1) FIG. 3. Intraplantar injection of capsaicin (10 μg/10 μL) together with QX-314 (2%, 10 μL) leads to a prolonged local anesthesia to mechanical (von Frey filaments) and thermal noxious stimuli. […] (*=p<0.05, n=6 for each group). […] Arrow indicates cutoff, and numbers of animals not responding to strongest stimulus is indicated for time points with largest effects. (*=p<0.05, n=6 for each group).
We next examined if the combination of capsaicin and QX-314 can reduce pain behavior in vivo. […] In three animals the paw was insensitive to even the highest value von Frey filament (57 g). The elevated mechanical threshold lasted for about three hours and then gradually returned back to basal levels by four hours (FIG. 3A).
(§2) For intraplantar injections, rats were first habituated to handling and tests performed with the experimenter blind to the treatment. Intraplantar injections of vehicle (20% ethanol, 5% Tween 20 in saline, 10 μL) capsaicin (1 μg/μL), QX-314 (2%) or mixture of capsaicin and QX-314 into the left hindpaw were made and mechanical and thermal sensitivities determined using von Frey hairs and radiant heat respectively.

Data set [2] relates to voltage-dependent sodium channels. The data set is described as follows: whole-cell voltage clamp recordings of sodium current in small (capsaicin-sensitive) DRG neurons. The conditions noted are these: for inhibition (decrease) of sodium current: small capsaicin-sensitive DRG neurons, 5 mM QX-314 (5-minute application), 1 μM capsaicin (1-10 minutes), alone or together, steps from −70 mV, n=25. The class given is cell-based, rat. The procedure:
We recorded current through voltage-dependent sodium channels using whole-cell voltage clamp recordings from adult rat DRG neurons. To select for nociceptors, we recorded from small (24±5 μm; n=25) neurons and tested the neurons for the expression of TRPV1 receptors by a short (1-sec) application of 1 μM capsaicin. In 25/25 of small neurons tested, capsaicin produced a prolonged (10±3 sec) inward current (FIG. 1A, upper panel), consistent with the neurons being nociceptors. Sodium currents were elicited by depolarizing steps from a holding potential of −70 mV.
(§3) Dorsal root ganglia from 6-8 week old Sprague-Dawley rats were removed and placed into Dulbecco's Minimum Essential Medium containing 1% penicillin-streptomycin (Sigma), then treated for 90 minutes with 5 mg/ml collagenase, 1 mg/ml Dispase II (Roche, Indianapolis, Ind.) and for 7 minutes with 0.25% trypsin, followed by addition of 2.5% trypsin inhibitor. Cells were triturated in the presence of DNAase I […] (50 U), centrifuged through 15% BSA (Sigma), resuspended in 1 ml Neurobasal medium (Sigma), 10 μM AraC, NGF (50 ng/ml) and GDNF (2 ng/ml) and plated onto poly-lysine (500 μg/ml) and laminin ([…]) coated 35 mm tissue culture dishes (Becton Dickinson) at 8000-9000 per well. Cultures were incubated at 37° C., 5% carbon dioxide. Recordings were made within 48 hours after plating. Average size of small neurons chosen as likely nociceptors was 23±6 μm (n=50) and that of large neurons was 48±8 μM (n=10).
Whole-cell voltage-clamp or current-clamp recordings were made using an Axopatch 200 A amplifier (Axon Instruments, Union City, Calif.) and patch pipettes with resistances of 1-2 MΩ. For voltage-clamp recordings pipette capacitance was reduced by wrapping the shank by Parafilm or coating the shank with Sylgard (Dow Corning, Midland, Mich.). Cell capacitance was compensated for using the amplifier circuitry, and linear leakage currents subtracted using a P/4 procedure. Series resistance (usually 3-7 MO and always less than 10 MΩ) was compensated by ˜80%. Voltage clamp recordings used solutions designed to isolate sodium currents by blocking potassium and calcium currents and with reduced external sodium to improve voltage clamp. Pipette solution was 110 mM CsCl, 1 mM CaCl2, 2 mM MgCl2, 11 mM EGTA, and 10 mM HEPES, pH adjusted to 7.4 with ˜25 mM CsOH. External solution was 60 mM NaCl, 60 mM choline chloride, 4 mM KCl, 2 mM CaCl2, 1 mM MgCl2, 0.1 mM CdCl2, 15 mM tetraethylammonium chloride, 5 mM 4-aminopyridine, 10 mM glucose, and 10 mM HEPES, pH adjusted to 7.4 with NaOH. No correction was made for the small liquid junction potential (−2.2 mV).
Command protocols were generated and data digitized using a Digidata 1200 A/D interface with pCLAMP 8.2 software (Axon Instruments, Union City, Calif.). […]

For data set [3], the system named is rats. Nature of the data set: sciatic nerve injection, thermal (radiant heat) response latency. The conditions noted are these: QX-314 0.2%, 100 μL, capsaicin 0.5 μg/μL, for 30 min after injection. The class given is in vivo, rat. Here is the method:
(§4) Motor effects were scored according to a scale of 0 (no effect; normal gait and limb placement), 1 (limb movement but with abnormal limb placement and movement) or 2 (complete loss of limb movement). […] For co-application of QX-314 and capsaicin into the para-sciatic nerve region, we injected QX-314 first, followed 10 minutes later by capsaicin, with the idea that QX-314 would be present extracellularly and ready to enter TRPV1 channels as soon as they were activated.
(§5) For sciatic nerve injections, animals were first habituated to handling for 10 days. Lidocaine (0.2% or 2%, 100 μL); QX-314 (0.2%, 100 μL) alone; capsaicin (50 μg in 100 μL) alone, or QX-314 followed by capsaicin (10 minutes interval) were injected into the area of sciatic nerve below the hip joint. Mechanical and thermal thresholds were determined using von Frey filaments and radiant heat. […] Walking, climbing, walking on the rod and placing reflex were examined. […] All experiments were done with the experimenter blinded.

In data set [4] the test system is small DRG neurons. The data set is described as follows: current clamp recording of action potentials in small nociceptive-like DRG neurons. The class given is cell-based, rat. The conditions noted are these: QX-314 5 mM, capsaicin 1 μM.
The subject of data set [5] is voltage-dependent sodium channels. Nature of the data set: whole-cell voltage clamp recordings of sodium current in large (capsaicin-insensitive) DRG neurons. The note with it: large DRG neurons (>40 μm); 10-minute application; n=10. In kind it is cell-based, rat.
Description: To test whether the ability of co-applied capsaicin and QX-314 to inhibit sodium current is selective for cells that express TRPV1 receptors, we also recorded from large DRG neurons (soma diameter >40 μm) (FIG. 1A, right). […] As for small diameter neurons, QX-314 applied alone had little or no effect on sodium current (current increased by 8±4% after a 10-minute application, n=10). Unlike small diameter neurons, capsaicin had no effect on sodium current in large diameter neurons (average increase by 3±2% after a 10-minute application, n=10).
as §3, with “Average size of small neurons chosen as likely nociceptors was 23±6 μm (n=50) and that of large neurons was 48±8 μM (n=10).” left out

Data set [6] has as its system rats. Nature of the data set: sciatic nerve injection, mechanical threshold (von Frey filaments). The class given is in vivo, rat. The note with it: QX-314 0.2%, 100 μL, capsaicin 0.5 μg/μL, for 30 min after injection. Here is the method:
as §4, §5

Data set [7] concerns rats. The data set is described as follows: sciatic nerve injection, motor function score and placing reflex. Here is the method:
as §4, §5

Data set [8] concerns adult rats. The data set is described as follows: intraplantar injection, thermal (radiant heat) response latency. In kind it is in vivo, rat. The note with it: QX-314 at 30 min, capsaicin at 15 and 30 min, combination 2 hours after injection, heat applied for 25 seconds. Here is the method:
as §1
Similar effects were seen examining sensitivity to a standardized noxious radiant heat stimulus. […] This effect remained for 4 hours after the injection (FIG. 3B).
as §2

Data set [9] is described as follows: hindpaw injection, acute pain-related response (flinches) and analgesia (FIG. 8). In kind it is in vivo. The conditions noted are these: injection into the hindpaw, flinches (FIG. 8).
Data set [10] addresses T1, TRPV1 receptors (Rattus norvegicus, UniProt O35433).
T1 construct: Dorsal root ganglia from 6-8 week old Sprague-Dawley rats were removed; endogenous in cells; host or cells: primary cultured dorsal root ganglion neurons from 6-8 week old Sprague-Dawley rats
Nature of the data set: capsaicin-evoked inward current in DRG neurons (test for expression of TRPV1 receptors). In kind it is cell-based. Here is the method: QX-314 (5 mM), capsaicin (1 μM or 500 nM), or their combination was applied using custom-designed multibarrel fast drug delivery system placed about 200-250 μm from the neuron. Solution exchange was complete in less than a second.

Data set [11] has as its system adult rats. The data set is described as follows: intraplantar injection, spontaneous flinching. In kind it is in vivo, rat. The note with it: first 5 minutes after intraplantar injection; capsaicin 10 μg/10 μL, QX-314 2%.
[12] abbreviates: small neurons, 1-sec application of 1 μM capsaicin.

T1 sequence (O35433 whole entry): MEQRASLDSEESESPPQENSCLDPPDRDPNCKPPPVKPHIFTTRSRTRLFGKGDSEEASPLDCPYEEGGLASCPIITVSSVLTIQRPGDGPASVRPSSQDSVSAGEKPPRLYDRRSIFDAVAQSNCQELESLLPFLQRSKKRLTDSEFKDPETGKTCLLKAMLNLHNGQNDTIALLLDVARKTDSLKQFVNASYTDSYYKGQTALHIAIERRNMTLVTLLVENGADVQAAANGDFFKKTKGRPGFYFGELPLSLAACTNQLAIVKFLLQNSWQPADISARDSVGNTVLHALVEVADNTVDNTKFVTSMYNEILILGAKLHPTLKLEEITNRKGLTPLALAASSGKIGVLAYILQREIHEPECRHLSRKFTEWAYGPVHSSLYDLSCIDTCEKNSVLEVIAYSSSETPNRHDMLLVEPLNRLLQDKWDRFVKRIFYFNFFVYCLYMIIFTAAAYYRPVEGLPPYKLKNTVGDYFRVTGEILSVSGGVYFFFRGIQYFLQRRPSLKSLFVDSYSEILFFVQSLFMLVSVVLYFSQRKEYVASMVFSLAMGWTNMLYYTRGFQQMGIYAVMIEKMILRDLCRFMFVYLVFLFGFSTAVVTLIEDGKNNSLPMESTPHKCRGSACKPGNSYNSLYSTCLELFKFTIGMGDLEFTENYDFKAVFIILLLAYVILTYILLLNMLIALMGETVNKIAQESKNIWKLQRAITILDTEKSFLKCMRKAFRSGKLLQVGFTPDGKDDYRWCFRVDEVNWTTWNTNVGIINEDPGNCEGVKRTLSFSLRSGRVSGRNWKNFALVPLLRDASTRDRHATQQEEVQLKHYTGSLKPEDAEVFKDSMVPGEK

On to `CC[N+](CC)(CC)CC(=O)Nc1c(C)cccc1C` [QX-314], for which the “effect on mechanical threshold for withdrawal response” value in [1] is “no significant effect”. Further, the “effect of external application on sodium channels” value in data set [2] (external QX-314 alone) was “no effect”. In addition, the “inhibition (decrease) of sodium current” value in data set [2] came to 3±0.5%. Besides, the “effect on thermal response latency” value in data set [3] was “no significant effect”. Further, the “effect on action potential generation / amplitude” value in [4] is “had no effect”. In addition, the “increase of sodium current” value in [5] came to 8±4%. For the same compound, the “effect on mechanical threshold” value in data set [6] was “no significant effect”. For the same compound, the “effect on motor function” value in data set [7] (rat, in vivo) is recorded as “no effect on motor function”. In addition, the “effect on thermal response latency (noxious radiant heat)” value in data set [8] is listed as “transiently reduced the thermal response latency”.

As for `COc1cc(CNC(=O)CCCC/C=C/C(C)C)ccc1O` [capsaicin], in [1], the “effect on mechanical threshold for withdrawal response” value is recorded as “significantly reduced the mechanical threshold”. In data set [2], the “inhibition (decrease) of sodium current” value is on record as 31±9%. For the same compound, the “effect on thermal response latency” value in [3] was “reduced”. Besides, in [4], the “effect on action potential generation / amplitude” value was “reduced the action potential amplitude”. Moreover, the “duration of acute pain-related response following injection” value in data set [9] was “approximately 15 min”. Further, the “increase of sodium current” value in data set [5] is on record as 3±2%. Besides, the “effect on mechanical threshold” value in data set [6] is on record as “reduced”. For the same compound, in data set [10] (large DRG neurons, soma diameter >40 μm, 10 of 10), the “inward current in large DRG neurons” value is “did not elicit an inward current”. Also, in data set [10] (setting [12]), the “duration of prolonged inward current” value came out at 10 ± 3 s and the “small neurons tested in which an inward current was produced” value is recorded as 25/25. Also, the mean motor score in [7] (scale 0-2, sciatic injection, lidocaine 2% at 30 minutes, capsaicin 0.5 μg/μL, 100 μL, QX-314 0.2%, 100 μL followed 10 minutes later by capsaicin) was 0.7±0.2. Besides, the “effect on thermal response latency (noxious radiant heat)” value in data set [8] was “reduced”. Further, the “flinches in 5 min” value in data set [11] was found to be 40±6 flinches.

Turning to `C=CCc1ccc(O)c(OC)c1` [eugenol, 2-methoxy-4-(2-propenyl)phenol], the “inhibition of sodium current” value in data set [2] (small dorsal root ganglion neurons, eugenol alone (FIG. 5)) was 10-20%.

On to `CCN(CC)CC(=O)Nc1c(C)cccc1C` [lidocaine], for which, in data set [7] (rat, in vivo), the “duration of complete loss of tactile stimulus-evoked placing reflex” value is “at least 30 minutes”; the “effect on motor function” value was “complete paralysis of the lower limb”; the “time to full recovery of sensory and motor deficits” value was ≤ 45 min.

The record behind these values is patent US20110086818A1, “METHODS, COMPOSITIONS, AND KITS FOR TREATING PAIN AND PRURITUS” (priority 2008, published 2011).
